In patent US6902926B1, “Toxoplasma gondii apical membrane antigen-1” (priority 2000, dated 2005):

System: secretion of the 53-kDa fragment of TgAMA-1
Test: Secretion assay: TgAMA-1 released from tachyzoites into culture supernatant, by western blot
Format: cell-based, Toxoplasma gondii
Conditions: for secretion of the 53-kDa fragment of TgAMA-1: 2-min treatment at 37° C.
Protocol: Tachyzoites (2F strain, constitutively expressing cytoplasmic β-galactosidase [generous gift of David Sibley]) were washed twice in DMEM+20 mM HEPES, pH 7.0 (4 min, 1000×g, 23° C.), and resuspended in 4 ml polystyrene round bottom tubes at a concentration of 2×10^8 tachyzoites/ml. The suspension was incubated for various times at 37° C. or treated for 15 min at 23° C. with either 1.0% (v/v) DMSO or 20 μM BAPTA-AM (1.0% [v/v] DMSO final), followed by 2 min at 37° C. with 200 nM A23187 (1.0% [v/v] DMSO final) or 1.0% ethanol. Cells were pelleted (4 min, 1000×g, 4° C.) and dissolved in SDS-PAGE sample buffer. Supernatants were recentrifuged (4 min, 1000×g, 4° C.) and dissolved in sample buffer. The samples were incubated for 10 min at 100° C. and analyzed by SDS-PAGE/western blotting. Gels to be probed with either Mab B3.90 or antipeptide antiserum UVT59 were run under non-reducing conditions; blots to be probed with Mab 6D10 were run under reducing conditions. The extent of parasite lysis was determined by measuring the levels of β-galactosidase in the supernatant, as previously described.

Row | Compound | effect of pretreatment on ethanol/A23187-enhanced secretion of the 53-kDa fragment (pretreating the parasites before ethanol or A23187) | secretion of the 53-kDa fragment of TgAMA-1
1 | CC(=O)OCOC(=O)CN(CC(=O)OCOC(C)=O)c1ccccc1OCCOc1ccccc1N(CC(=O)OCOC(C)=O)CC(=O)OCOC(C)=O [BAPTA-AM] | abrogated | –
2 | CCO [ethanol] | – | dramatically enhanced
3 | CNc1ccc2oc(C[C@H]3O[C@@]4(CC[C@H]3C)O[C@H]([C@H](C)C(=O)c3ccc[nH]3)[C@H](C)C[C@H]4C)nc2c1C(=O)O [A23187] | – | dramatically enhanced
